Source: patent US20260167641A1, “CRYSTAL FORM OF IMIDAZOPYRAZINE DERIVATIVE, PREPARATION METHOD THEREFOR AND USE THEREOF” (TRANSTHERA SCIENCES (NANJING), INC., priority 2022, published 2026)

Test: Long-term stability test
Type: physicochemical
Protocol: The samples were stored under the conditions of 25° C./60% RH (relative humidity) and 30° C./65% RH (relative humidity), respectively, and then collected at 1M, 2M, 3M, 6M, 9M, 12M, and 18M. Additionally, the samples were stored under the conditions of 40° C./75% RH (relative humidity) and then collected at 1M, 2M, 3M, and 6M. The appearance, total impurities, content, moisture, and crystal form changes (at 3M, 6M, and 12M) were examined and compared with the results on day 0.

Compound: Nc1nccn2c(C34CCC(NC(=O)CN5CCOCC5)(CC3)C4)nc(-c3ccc(C(=O)Nc4cc(C(F)(F)F)ccn4)cc3)c12 (single isomer, unassigned) [Crystal form II, 4-(8-amino-3-(4-(2-morpholinoacetamido)bicyclo[2.2.1]heptan-1-yl)imidazo[1,5-a]pyrazin-1-yl)-N-(4-(trifluoromethyl)pyridin-2-yl)benzamide]
- Appearance (0 day): Yellow solid
- Content % (0 day): 98.3%
- Crystal form XRPD (0 day): Crystal form II
- Moisture % (0 day): 0.23%
- Total impurities % (0 day): 1.1%
- Changes in appearance, total impurities, content, and moisture (6 months at 40° C./75% RH, 18 months at 25° C./60% RH and 30° C./65% RH): no significant changes
- Appearance (25° C./60% RH, 1M): Yellow solid
- Content % (25° C./60% RH, 1M): 98.2%
- Moisture % (25° C./60% RH, 1M): 0.28%
- Total impurities % (25° C./60% RH, 1M): 1.1%
- Appearance (25° C./60% RH, 2M): Yellow solid
- Content % (25° C./60% RH, 2M): 98.3%
- Moisture % (25° C./60% RH, 2M): 0.16%
- Total impurities % (25° C./60% RH, 2M): 1.2%
- Appearance (25° C./60% RH, 3M): Yellow solid
- Content % (25° C./60% RH, 3M): 98.4%
- Crystal form XRPD (25° C./60% RH, 3M): Crystal form II
- Moisture % (25° C./60% RH, 3M): 0.24%
- Total impurities % (25° C./60% RH, 3M): 1.1%
- Appearance (25° C./60% RH, 6M): Yellow solid
- Content % (25° C./60% RH, 6M): 98.2%
- Crystal form XRPD (25° C./60% RH, 6M): Crystal form II
- Moisture % (25° C./60% RH, 6M): 0.16%
- Total impurities % (25° C./60% RH, 6M): 1.1%
- Appearance (25° C./60% RH, 9M): Yellow solid
- Content % (25° C./60% RH, 9M): 98.5%
- Moisture % (25° C./60% RH, 9M): 0.23%
- Total impurities % (25° C./60% RH, 9M): 1.1%
- Appearance (25° C./60% RH, 12M): Yellow solid
- Content % (25° C./60% RH, 12M): 98.2%
- Crystal form XRPD (25° C./60% RH, 12M): Crystal form II
- Moisture % (25° C./60% RH, 12M): 0.12%
- Total impurities % (25° C./60% RH, 12M): 1.1%
- Appearance (25° C./60% RH, 18M): Yellow solid
- Content % (25° C./60% RH, 18M): 98.9%
- Moisture % (25° C./60% RH, 18M): 0.24%
- Total impurities % (25° C./60% RH, 18M): 1.1%
- Appearance (30° C./65% RH, 1M): Yellow solid
- Content % (30° C./65% RH, 1M): 98.2%
- Moisture % (30° C./65% RH, 1M): 0.24%
- Total impurities % (30° C./65% RH, 1M): 1.1%
- Appearance (30° C./65% RH, 2M): Yellow solid
- Content % (30° C./65% RH, 2M): 97.9%
- Moisture % (30° C./65% RH, 2M): 0.19%
- Total impurities % (30° C./65% RH, 2M): 1.2%
- Appearance (30° C./65% RH, 3M): Yellow solid
- Content % (30° C./65% RH, 3M): 98.2%
- Crystal form XRPD (30° C./65% RH, 3M): Crystal form II
- Moisture % (30° C./65% RH, 3M): 0.30%
- Total impurities % (30° C./65% RH, 3M): 1.1%
- Appearance (30° C./65% RH, 6M): Yellow solid
- Content % (30° C./65% RH, 6M): 98.1%
- Crystal form XRPD (30° C./65% RH, 6M): Crystal form II
- Moisture % (30° C./65% RH, 6M): 0.13%
- Total impurities % (30° C./65% RH, 6M): 1.1%
- Appearance (30° C./65% RH, 9M): Yellow solid
- Content % (30° C./65% RH, 9M): 98.4%
- Moisture % (30° C./65% RH, 9M): 0.24%
- Total impurities % (30° C./65% RH, 9M): 1.1%
- Appearance (30° C./65% RH, 12M): Yellow solid
- Content % (30° C./65% RH, 12M): 98.2%
- Crystal form XRPD (30° C./65% RH, 12M): Crystal form II
- Moisture % (30° C./65% RH, 12M): 0.13%
- Total impurities % (30° C./65% RH, 12M): 1.1%
- Appearance (30° C./65% RH, 18M): Yellow solid
- Content % (30° C./65% RH, 18M): 99.0%
- Moisture % (30° C./65% RH, 18M): 0.17%
- Total impurities % (30° C./65% RH, 18M): 1.1%
- Content % (40° C./75% RH, 1M): 98.0%
- Appearance (40° C./75% RH, 2M): Yellow solid
- Content % (40° C./75% RH, 2M): 97.9%
- Moisture % (40° C./75% RH, 2M): 0.18%
- Total impurities % (40° C./75% RH, 2M): 1.2%
- Appearance (40° C./75% RH, 3M): Yellow solid
- Content % (40° C./75% RH, 3M): 98.1%
- Crystal form XRPD (40° C./75% RH, 3M): Crystal form II
- Moisture % (40° C./75% RH, 3M): 0.24%
- Total impurities % (40° C./75% RH, 3M): 1.1%
- Appearance (40° C./75% RH, 6M): Yellow solid
- Content % (40° C./75% RH, 6M): 98.3%
- Crystal form XRPD (40° C./75% RH, 6M): Crystal form II
- Moisture % (40° C./75% RH, 6M): 0.13%
- Total impurities % (40° C./75% RH, 6M): 1.1%
- Appearance (40° C./75% RH, ^ IM): Yellow solid
- Moisture % (40° C./75% RH, ^ IM): 0.24%
- Total impurities % (40° C./75% RH, ^ IM): 1.1%
